In ChEMBL document CHEMBL4732242 (Eur J Med Chem, 2021) one finds IC50 data, which are given here for 20 compounds.

For experiment [1], the target named is Dual specificity protein kinase CLK1 (Homo sapiens, UniProt P49759). The experiment is described as follows: Inhibition of human recombinant CLK1 using ERMRPRKRQGSVR substrate by radiometric scintillation assay.
The target of experiment [2] is Dual specificity protein kinase CLK2 (Homo sapiens, UniProt P49760). The experiment is described as follows: Inhibition of human recombinant CLK2 using YRRAAVPPSPSLSR substrate by radiometric scintillation assay.
Dual specificity protein kinase CLK2, sequence (P49760 whole entry): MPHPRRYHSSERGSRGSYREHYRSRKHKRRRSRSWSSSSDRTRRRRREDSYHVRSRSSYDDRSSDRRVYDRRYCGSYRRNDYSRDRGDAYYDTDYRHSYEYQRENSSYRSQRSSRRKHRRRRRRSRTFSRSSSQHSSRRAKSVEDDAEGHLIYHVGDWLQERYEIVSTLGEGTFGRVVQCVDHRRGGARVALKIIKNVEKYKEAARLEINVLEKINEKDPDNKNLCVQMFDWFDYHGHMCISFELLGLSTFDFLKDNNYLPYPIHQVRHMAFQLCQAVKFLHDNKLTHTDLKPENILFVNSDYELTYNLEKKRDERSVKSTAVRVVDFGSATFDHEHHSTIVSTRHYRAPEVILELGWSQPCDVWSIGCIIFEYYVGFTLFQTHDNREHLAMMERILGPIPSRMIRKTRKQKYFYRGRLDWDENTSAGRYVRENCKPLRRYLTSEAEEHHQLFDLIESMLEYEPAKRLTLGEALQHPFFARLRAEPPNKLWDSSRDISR
For experiment [3], the target named is Dual specificity protein kinase CLK3 (Homo sapiens, UniProt P49761). The experiment is described as follows: Inhibition of human full length recombinant CLK3 using ERMRPRKRQGSVR substrate by radiometric scintillation assay.
Dual specificity protein kinase CLK3, sequence (P49761 whole entry): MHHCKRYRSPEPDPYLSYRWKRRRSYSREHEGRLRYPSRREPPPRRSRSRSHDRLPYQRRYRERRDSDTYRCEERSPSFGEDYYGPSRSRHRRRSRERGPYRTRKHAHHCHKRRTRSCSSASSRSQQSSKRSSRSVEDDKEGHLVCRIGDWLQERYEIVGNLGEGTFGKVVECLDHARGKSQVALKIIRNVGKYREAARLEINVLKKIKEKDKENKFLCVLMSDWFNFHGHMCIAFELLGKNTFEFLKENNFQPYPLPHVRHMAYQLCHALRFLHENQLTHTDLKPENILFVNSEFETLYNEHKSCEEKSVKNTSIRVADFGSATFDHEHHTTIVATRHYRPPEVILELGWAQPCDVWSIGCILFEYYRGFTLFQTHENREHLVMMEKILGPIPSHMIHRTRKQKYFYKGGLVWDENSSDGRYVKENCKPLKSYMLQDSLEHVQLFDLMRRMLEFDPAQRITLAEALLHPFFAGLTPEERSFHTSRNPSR
Experiment [4] has as its target Dual specificity protein kinase CLK4 (Homo sapiens, UniProt Q9HAZ1). The experiment in a line: Inhibition of human recombinant CLK4 using YRRAAVPPSPSLS substrate by radiometric scintillation assay.
Experiment [5] concerns the target Dual specificity tyrosine-phosphorylation-regulated kinase 1A (Homo sapiens, UniProt Q13627). The experiment is described as follows: Inhibition of human full length recombinant DYRK1A using RRRFRPASPLRGPP substrate by radiometric scintillation assay.
Experiment [6] deals with Dual specificity tyrosine-phosphorylation-regulated kinase 1B (Homo sapiens, UniProt Q9Y463). The experiment is described as follows: Inhibition of human full length recombinant DYRK1B using RRRFRPASPLRGPP substrate by radiometric scintillation assay.
Dual specificity tyrosine-phosphorylation-regulated kinase 1B, sequence (Q9Y463 whole entry): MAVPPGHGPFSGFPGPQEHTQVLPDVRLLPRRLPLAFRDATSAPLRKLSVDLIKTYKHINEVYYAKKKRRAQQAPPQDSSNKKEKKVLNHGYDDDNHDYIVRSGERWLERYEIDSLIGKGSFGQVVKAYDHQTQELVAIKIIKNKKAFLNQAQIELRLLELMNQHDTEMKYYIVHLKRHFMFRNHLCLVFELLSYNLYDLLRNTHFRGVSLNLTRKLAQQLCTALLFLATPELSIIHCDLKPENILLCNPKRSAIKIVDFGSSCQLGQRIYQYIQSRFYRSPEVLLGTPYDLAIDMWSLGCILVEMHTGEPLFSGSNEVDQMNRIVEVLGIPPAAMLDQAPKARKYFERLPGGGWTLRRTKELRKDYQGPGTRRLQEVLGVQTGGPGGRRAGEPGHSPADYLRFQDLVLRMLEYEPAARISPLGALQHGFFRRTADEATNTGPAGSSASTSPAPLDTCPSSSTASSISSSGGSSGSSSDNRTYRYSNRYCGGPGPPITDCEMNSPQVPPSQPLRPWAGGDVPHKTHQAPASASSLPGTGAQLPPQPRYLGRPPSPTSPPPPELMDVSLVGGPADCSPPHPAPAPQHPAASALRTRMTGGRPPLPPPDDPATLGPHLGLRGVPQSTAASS
For experiment [7], the target named is T1, Dual specificity tyrosine-phosphorylation-regulated kinase 2 (Homo sapiens, UniProt Q92630).
T1 sequence (Q92630 whole entry): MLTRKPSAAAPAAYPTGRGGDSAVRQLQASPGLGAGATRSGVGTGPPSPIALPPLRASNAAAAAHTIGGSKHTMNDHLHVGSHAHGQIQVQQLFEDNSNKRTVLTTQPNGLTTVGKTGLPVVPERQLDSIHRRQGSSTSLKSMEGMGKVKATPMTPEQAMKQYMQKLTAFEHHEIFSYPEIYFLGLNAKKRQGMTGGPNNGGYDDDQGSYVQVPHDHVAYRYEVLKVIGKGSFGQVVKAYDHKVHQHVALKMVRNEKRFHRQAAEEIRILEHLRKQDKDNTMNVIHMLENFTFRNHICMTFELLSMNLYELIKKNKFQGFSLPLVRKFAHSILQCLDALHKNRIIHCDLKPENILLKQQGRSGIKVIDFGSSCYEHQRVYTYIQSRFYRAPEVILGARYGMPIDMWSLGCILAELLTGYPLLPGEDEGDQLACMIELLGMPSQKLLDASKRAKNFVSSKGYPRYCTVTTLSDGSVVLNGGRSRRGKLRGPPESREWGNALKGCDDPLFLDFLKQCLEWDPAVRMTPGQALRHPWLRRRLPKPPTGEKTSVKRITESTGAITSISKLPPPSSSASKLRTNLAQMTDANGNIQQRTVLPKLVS
The experiment in a line: Inhibition of human full length recombinant DYRK2 using casein substrate by radiometric scintillation assay.

The target of experiment [8] is Homeodomain-interacting protein kinase 1 (Homo sapiens, UniProt Q86Z02). The experiment is described as follows: Inhibition of human recombinant HIPK1 using myelin substrate by radiometric scintillation assay.
Homeodomain-interacting protein kinase 1, sequence (Q86Z02 whole entry): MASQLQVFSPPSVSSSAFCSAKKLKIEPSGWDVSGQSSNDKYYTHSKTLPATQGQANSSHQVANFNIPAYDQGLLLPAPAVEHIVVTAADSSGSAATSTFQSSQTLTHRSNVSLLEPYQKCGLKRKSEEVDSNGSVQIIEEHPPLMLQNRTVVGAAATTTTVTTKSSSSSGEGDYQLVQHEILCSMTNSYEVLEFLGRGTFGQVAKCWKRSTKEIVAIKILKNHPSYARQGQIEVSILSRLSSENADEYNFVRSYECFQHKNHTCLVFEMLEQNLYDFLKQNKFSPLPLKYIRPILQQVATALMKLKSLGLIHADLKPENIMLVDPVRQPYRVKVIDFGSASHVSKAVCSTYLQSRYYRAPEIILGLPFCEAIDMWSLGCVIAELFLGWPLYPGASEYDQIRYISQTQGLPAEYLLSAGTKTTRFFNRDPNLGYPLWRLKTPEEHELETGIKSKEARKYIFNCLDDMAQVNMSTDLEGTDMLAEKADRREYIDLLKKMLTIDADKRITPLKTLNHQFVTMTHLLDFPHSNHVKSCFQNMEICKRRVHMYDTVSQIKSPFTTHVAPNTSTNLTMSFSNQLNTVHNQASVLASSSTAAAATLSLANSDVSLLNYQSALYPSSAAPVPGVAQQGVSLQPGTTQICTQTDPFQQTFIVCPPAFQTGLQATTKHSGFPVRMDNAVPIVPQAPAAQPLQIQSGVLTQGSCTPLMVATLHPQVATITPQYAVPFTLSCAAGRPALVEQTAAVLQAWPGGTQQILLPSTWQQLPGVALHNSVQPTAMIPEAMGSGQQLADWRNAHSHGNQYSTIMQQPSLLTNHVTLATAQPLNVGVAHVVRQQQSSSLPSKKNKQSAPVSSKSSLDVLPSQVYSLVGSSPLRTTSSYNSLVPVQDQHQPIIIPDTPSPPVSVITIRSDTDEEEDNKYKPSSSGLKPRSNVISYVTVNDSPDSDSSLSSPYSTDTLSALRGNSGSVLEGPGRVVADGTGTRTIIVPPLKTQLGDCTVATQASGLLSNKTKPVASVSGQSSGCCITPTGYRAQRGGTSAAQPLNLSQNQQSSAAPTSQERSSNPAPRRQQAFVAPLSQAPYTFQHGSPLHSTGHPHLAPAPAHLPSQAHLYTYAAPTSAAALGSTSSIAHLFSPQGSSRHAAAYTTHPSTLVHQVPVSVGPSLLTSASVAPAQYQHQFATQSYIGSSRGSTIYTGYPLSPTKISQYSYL
For experiment [9], the target named is Homeodomain-interacting protein kinase 2 (Homo sapiens, UniProt Q9H2X6). The experiment is described as follows: Inhibition of human recombinant HIPK2 using myelin substrate by radiometric scintillation assay.
Homeodomain-interacting protein kinase 2, sequence (Q9H2X6 whole entry): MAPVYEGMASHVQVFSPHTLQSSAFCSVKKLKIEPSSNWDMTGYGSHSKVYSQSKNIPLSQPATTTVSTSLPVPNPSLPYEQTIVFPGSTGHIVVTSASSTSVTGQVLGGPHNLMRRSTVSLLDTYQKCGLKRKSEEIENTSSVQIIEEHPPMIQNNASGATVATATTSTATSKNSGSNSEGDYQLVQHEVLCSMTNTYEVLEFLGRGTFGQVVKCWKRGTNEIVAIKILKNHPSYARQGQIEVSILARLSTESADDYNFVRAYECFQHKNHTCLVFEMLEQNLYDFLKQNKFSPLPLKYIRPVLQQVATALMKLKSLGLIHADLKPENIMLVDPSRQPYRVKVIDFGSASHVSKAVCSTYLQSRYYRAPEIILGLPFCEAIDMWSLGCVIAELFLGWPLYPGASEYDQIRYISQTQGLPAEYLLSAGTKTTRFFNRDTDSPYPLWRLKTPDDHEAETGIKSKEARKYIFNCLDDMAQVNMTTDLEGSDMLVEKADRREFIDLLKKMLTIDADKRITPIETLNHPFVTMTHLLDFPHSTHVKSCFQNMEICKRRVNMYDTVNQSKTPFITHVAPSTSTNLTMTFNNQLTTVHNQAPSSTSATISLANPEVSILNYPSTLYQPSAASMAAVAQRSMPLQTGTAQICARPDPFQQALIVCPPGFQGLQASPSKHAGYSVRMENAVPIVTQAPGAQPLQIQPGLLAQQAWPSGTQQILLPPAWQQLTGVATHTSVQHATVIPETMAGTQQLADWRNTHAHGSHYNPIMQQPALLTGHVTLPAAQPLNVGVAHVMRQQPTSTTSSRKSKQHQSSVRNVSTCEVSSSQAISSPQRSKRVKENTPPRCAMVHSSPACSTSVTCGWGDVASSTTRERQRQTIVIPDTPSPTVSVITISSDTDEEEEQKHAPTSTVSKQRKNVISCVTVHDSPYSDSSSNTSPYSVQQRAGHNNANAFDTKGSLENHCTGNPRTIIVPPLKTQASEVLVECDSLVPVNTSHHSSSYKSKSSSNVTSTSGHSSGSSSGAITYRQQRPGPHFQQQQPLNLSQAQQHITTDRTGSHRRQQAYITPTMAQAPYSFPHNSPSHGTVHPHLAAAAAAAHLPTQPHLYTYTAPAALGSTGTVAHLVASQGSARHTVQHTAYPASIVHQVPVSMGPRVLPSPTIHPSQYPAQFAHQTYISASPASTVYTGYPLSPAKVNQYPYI
Experiment [10] has as its target Homeodomain-interacting protein kinase 3 (Homo sapiens, UniProt Q9H422). The experiment is described as follows: Inhibition of human recombinant HIPK3 using myelin substrate by radiometric scintillation assay.

SMILES strings stand for the structures.

By IC50 is commonly meant the concentration needed to halve the response being measured.

Dual specificity protein kinase CLK4, sequence (Q9HAZ1 whole entry): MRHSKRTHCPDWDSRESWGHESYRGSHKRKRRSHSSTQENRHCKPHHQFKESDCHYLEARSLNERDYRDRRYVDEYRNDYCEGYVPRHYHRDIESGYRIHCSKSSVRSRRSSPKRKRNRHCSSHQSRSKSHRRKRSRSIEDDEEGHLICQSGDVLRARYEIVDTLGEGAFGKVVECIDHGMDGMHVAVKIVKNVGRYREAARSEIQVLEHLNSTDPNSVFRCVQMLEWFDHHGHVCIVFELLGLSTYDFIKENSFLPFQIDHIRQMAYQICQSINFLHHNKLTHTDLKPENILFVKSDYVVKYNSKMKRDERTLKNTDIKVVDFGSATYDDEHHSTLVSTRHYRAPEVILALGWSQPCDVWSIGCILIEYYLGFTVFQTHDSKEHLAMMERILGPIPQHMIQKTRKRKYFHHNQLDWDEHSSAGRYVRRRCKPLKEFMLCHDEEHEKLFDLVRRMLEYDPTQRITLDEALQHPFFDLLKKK
Dual specificity protein kinase CLK1, sequence (P49759 whole entry): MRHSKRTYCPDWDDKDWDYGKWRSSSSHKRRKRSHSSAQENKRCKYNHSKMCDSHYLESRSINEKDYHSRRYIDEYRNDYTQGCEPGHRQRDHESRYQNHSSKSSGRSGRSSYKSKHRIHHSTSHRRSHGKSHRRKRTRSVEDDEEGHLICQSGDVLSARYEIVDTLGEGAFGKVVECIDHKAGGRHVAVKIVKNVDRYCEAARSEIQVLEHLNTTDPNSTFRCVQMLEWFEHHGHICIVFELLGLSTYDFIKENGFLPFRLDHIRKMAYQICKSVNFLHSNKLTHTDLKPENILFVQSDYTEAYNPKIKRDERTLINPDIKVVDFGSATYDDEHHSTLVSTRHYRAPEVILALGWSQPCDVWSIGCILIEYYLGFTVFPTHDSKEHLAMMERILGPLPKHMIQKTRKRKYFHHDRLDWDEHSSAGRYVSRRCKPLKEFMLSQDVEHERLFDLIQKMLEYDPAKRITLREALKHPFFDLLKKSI

On to `CC1(c2ccc(-c3coc4ccc(-c5cn[nH]c5)nc34)cc2)CC1`, for which the IC50 is 308 nM in [1]; 155 nM in experiment [2]; more than 3000 nM in [3]; 320 nM in experiment [4]; more than 3000 nM in [5]; more than 3000 nM in experiment [6]. Besides, the IC50 in experiment [7] was more than 3000 nM; in [8], 220 nM; in [9] it was 68 nM; in experiment [10], 441 nM.

With `CN1CCC(c2cccc(-c3coc4ccc(-c5cnn(C)c5)nc34)c2)CC1`, the IC50 in experiment [1] was 169 nM; in [2] it was 667 nM; in experiment [3], more than 3000 nM; in experiment [4] it was 116 nM; in experiment [5] it was 568 nM; in experiment [6] it was more than 3000 nM. The IC50 in [7] is more than 3000 nM; in experiment [8], 354 nM; in [9], 260 nM; in experiment [10] it was 692 nM.

On to `C=C(C)c1ccc(-c2coc3ccc(-c4cn[nH]c4)nc23)cc1`, for which the IC50 in experiment [1] is 68 nM; in experiment [2] it was 40 nM; in experiment [3], more than 3000 nM; in experiment [4] it was 42 nM; in experiment [5], 1370 nM; in experiment [6], more than 3000 nM. Also, the IC50 in [7] is more than 3000 nM; in experiment [8], 51 nM; in [9], 41 nM; in [10] it was 65 nM.

On to `COc1ccc(-c2coc3ccc(-c4cn[nH]c4)nc23)cc1`, for which the IC50 was 39 nM in experiment [2]; 46 nM in experiment [4]; 1000 nM in [7]; 33 nM in experiment [8]; 15 nM in [9]; 66 nM in experiment [10].

As for `Cn1cc(-c2ccc3occ(-c4ccc(C(C)(C)C)cc4)c3n2)cn1`, the IC50 in [1], in experiment [2], in [3], in experiment [4], in experiment [5] and in experiment [6] was more than 3000 nM in each case. In addition, the IC50 in [7], in experiment [8], in experiment [9] and in experiment [10] was more than 3000 nM in each case.

For `CC(C)(C)c1ccc(-c2coc3ccc(-c4cnsc4)nc23)cc1`, the IC50 in experiment [1], in experiment [2], in [3], in experiment [4], in experiment [5] and in [6] was more than 3000 nM throughout. In addition, the IC50 in experiment [7], in [8], in experiment [9] and in experiment [10] was more than 3000 nM in each case.

On to `c1ccc2cc(-c3coc4ccc(-c5cn[nH]c5)nc34)ccc2c1`, for which the IC50 in experiment [2] turned out to be 25 nM; in experiment [4], 31 nM; in experiment [7], 1430 nM; in experiment [8], 16 nM; in experiment [9] it was 5 nM; in experiment [10] it was 38 nM.

As for `c1n[nH]cc1-c1ccc2occ(-c3ccc(C45CC6CC(CC(C6)C4)C5)cc3)c2n1`, the IC50 in [1], in experiment [2], in [3], in experiment [4], in experiment [5] and in [6] was more than 3000 nM each time. Besides, the IC50 in experiment [7], in experiment [8], in [9] and in experiment [10] was more than 3000 nM each time.

In the case of `Cn1cc(-c2ccc3occ(-c4cccc(-c5cc[nH]n5)c4)c3n2)cn1`, the IC50 in experiment [1] was 14 nM; in experiment [2], 16 nM; in experiment [3], 1640 nM; in [4], 15 nM; in experiment [5], 116 nM; in experiment [6] it was 1890 nM. The IC50 is more than 3000 nM in [7], 125 nM in experiment [8], 30 nM in [9] and 128 nM in experiment [10].

Turning to `CC(C)(C)c1ccc(-c2coc3ccc(-c4nn[nH]n4)nc23)cc1`, the IC50 in [1], in [2], in [3], in experiment [4], in [5] and in [6] was more than 3000 nM each time. In addition, the IC50 in [7] was more than 3000 nM; in experiment [8] it was 545 nM; in experiment [9], 357 nM; in experiment [10], 720 nM.

For the compound `c1n[nH]cc1-c1ccc2occ(-c3ccc(C4CCCCC4)cc3)c2n1`, the IC50 in experiment [1] was 2110 nM; in [2] it was more than 3000 nM; in [3], more than 3000 nM; in experiment [4], 776 nM; in experiment [5], more than 3000 nM; in experiment [6], more than 3000 nM. For the same compound, the IC50 in experiment [7] is more than 3000 nM; in [8], more than 3000 nM; in experiment [9], 654 nM; in experiment [10], more than 3000 nM.

Take `c1ccc(-c2ccc(-c3coc4ccc(-c5cn[nH]c5)nc34)cc2)cc1`: the IC50 in [1] is 114 nM; in experiment [2], 529 nM; in [3] it was more than 3000 nM; in [4] it was 126 nM; in experiment [5] it was more than 3000 nM; in experiment [6] it was more than 3000 nM. The IC50 was more than 3000 nM in [7], 278 nM in experiment [8], 172 nM in experiment [9] and 807 nM in experiment [10].

`c1ccc(Cc2ccc(-c3coc4ccc(-c5cn[nH]c5)nc34)cc2)cc1`: the IC50 was 450 nM in experiment [1]; 1840 nM in [2]; more than 3000 nM in [3]; 355 nM in experiment [4]; more than 3000 nM in [5]; more than 3000 nM in experiment [6]. Further, the IC50 was more than 3000 nM in experiment [7], 921 nM in [8], 484 nM in [9] and more than 3000 nM in experiment [10].

Consider `c1ccc(-c2coc3ccc(-c4cn[nH]c4)nc23)cc1`, for which the IC50 in [2] amounted to 72 nM; in experiment [4], 41 nM; in experiment [7] it was 1150 nM; in experiment [8], 62 nM; in experiment [9], 42 nM; in experiment [10], 128 nM.

As for `Cn1cc(-c2ccc3occ(-c4ccc(C(C)(C)C)cc4)c3n2)nn1`, the IC50 in experiment [1], in experiment [2], in experiment [3], in experiment [4], in experiment [5] and in experiment [6] was more than 3000 nM each time. The IC50 in experiment [7], in [8], in experiment [9] and in experiment [10] was more than 3000 nM each time.

As for `Cn1cc(-c2coc3ccc(-c4cn[nH]c4)nc23)cn1`, the IC50 is 176 nM in [2]; 45 nM in [4]; 1210 nM in experiment [7]; 235 nM in [8]; 28 nM in [9].

As to `Cn1cc(-c2ccc3occ(-c4cccc(C5CCNCC5)c4)c3n2)cn1`, the IC50 was 59 nM in [1]; 90 nM in [2]; more than 3000 nM in experiment [3]; 52 nM in experiment [4]; 324 nM in experiment [5]; more than 3000 nM in [6]. For the same compound, the IC50 in [7] was more than 3000 nM; in [8] it was 264 nM; in [9] it was 179 nM; in [10], 300 nM.

In the case of `Cn1ccc(-c2ccc3occ(-c4ccc(C(C)(C)C)cc4)c3n2)n1`, the IC50 in [1], in experiment [2], in experiment [3], in [4], in experiment [5] and in [6] was more than 3000 nM each time. In addition, the IC50 in experiment [7], in experiment [8], in [9] and in [10] was more than 3000 nM in each case.

Regarding `CC(C)Cc1ccc(-c2coc3ccc(-c4cn[nH]c4)nc23)cc1`, the IC50 in [1] is 671 nM; in experiment [2] it was 827 nM; in [3] it was more than 3000 nM; in experiment [4], 896 nM; in [5], more than 3000 nM; in experiment [6], more than 3000 nM. Moreover, the IC50 was more than 3000 nM in experiment [7], 685 nM in experiment [8], 501 nM in experiment [9] and 1230 nM in experiment [10].

With `CC(C)(C)c1ccc(-c2coc3ccc(-c4cc[nH]n4)nc23)cc1`, the IC50 in experiment [1], in experiment [2], in [3], in experiment [4], in experiment [5] and in experiment [6] was more than 3000 nM each time. The IC50 in [7] is more than 3000 nM; in experiment [8] it was more than 3000 nM; in [9], 1280 nM; in [10] it was more than 3000 nM.
